Results published in patent US6372209B1, “Vaginal lactobacillus medicant” (Gyne Logix, Inc., priority 1997, dated 2002).
Where two headings read alike, the source gives them in different places.

How the values were obtained:
[1] = tested on: Candida albicans ATCC 60193 (cervical isolate); assay: Agar overlay zone of inhibition of yeast growth; assay type: cell-based; details: Organism Growth Time Period 48 hours
Experimental: MRS agar was allowed to harden at a 5 mm slant. Lactobacillus crispatus CTV-05 was streaked across the diameter of the plate and was grown for 24, 48 or 72 hours under both anaerobic and ambient atmospheres. Control strains of Lactobacillus jensenii CTV-01, Lactobacillus crispatus CTV-02, Lactobacillus crispatus CTV-03, and Lactobacillus crispatus CTV-04 were grown in the same way. The plates were overlayed with YM agar with 10 mM CNNaS (sodium thiocyanate, previously reported to be an inhibitor of yeast growth) or without CNNaS. The agar overlays were inoculated with one of two strains of Candida albicans ATCC 60193 (cervical isolate) or Candida albicans ATCC 14053 (human blood isolate). Zones of inhibition were measured. […] Therefore, Lactobacillus crispatus CTV-05 inhibits yeast growth in vitro.

[2] = tested on: women with recurrent bacterial vaginosis; details: for Percentage Women Colonized with H2O2-producing Lactobacilli / Women Colonized with H2O2-producing Lactobacilli, number: n = 15
Experimental: In this study, a group of women with recurrent bacterial vaginosis (BV) was treated with 2% Clindamycin cream, once daily for three days, followed by Lactobacillus suppositories containing the Lactobacillus crispatus CTV-05 strain twice daily for three days. A group of women from the same clinic with recurrent bacterial vaginosis treated with Clindamycin cream alone were included for comparison. […] The patients were evaluated for vaginal presence of H2O2-producing Lactobacilli, and the absence of bacterial vaginosis infection.

Molecule: Lactobacillus crispatus CTV-04 [reference compound]
- Zone of Inhibition (in millimeters) [1]: 5 to 2 mm

Molecule: CCC[C@@H]1C[C@@H](C(=O)N[C@@H]([C@H]2O[C@H](SC)[C@H](O)[C@@H](O)[C@H]2O)[C@H](C)Cl)N(C)C1 [Clindamycin]
- Percentage Women Colonized with H2O2-producing Lactobacilli ([2]; Enrollment): 33%
- Women Colonized with H2O2-producing Lactobacilli, number ([2]; Enrollment): 5
- Percentage Women Free of Bacterial Vaginosis ([2]; One month post treatment): 53%
- Percentage Women Colonized with H2O2-producing Lactobacilli ([2]; One month post treatment): 40%
- Women Colonized with H2O2-producing Lactobacilli, number ([2]; One month post treatment): 6
- Percentage Women Free of Bacterial Vaginosis ([2]; One week post treatment): 87%
- Percentage Women Colonized with H2O2-producing Lactobacilli ([2]; One week post treatment): 7%
- Women Colonized with H2O2-producing Lactobacilli, number ([2]; One week post treatment): 1
- Percentage Women Free of Bacterial Vaginosis ([2]; Three months post treatment): 26%
- Percentage Women Colonized with H2O2-producing Lactobacilli ([2]; Three months post treatment): 33%
- Women Colonized with H2O2-producing Lactobacilli, number ([2]; Three months post treatment): 5

Molecule: Lactobacillus crispatus CTV-03 [reference compound]
- Zone of Inhibition (in millimeters) [1]: slight inhibition

Molecule: Lactobacillus jensenii CTV-01 [reference compound]
- Zone of Inhibition (in millimeters) [1]: 1 to 0 mm

Molecule: Lactobacillus crispatus CTV-02 [reference compound]
- Zone of Inhibition (in millimeters) [1]: 3 to 0 mm
